The supplement of paper PMC10307832

Tests used:
Assay in all cases: relative viability (nuclei count vs DMSO), 5 days (fraction); higher = more cells survive
Dasatinib + OSI-027 = compound: Cc1nc(Nc2ncc(C(=O)Nc3c(C)cccc3Cl)s2)cc(N2CCN(CCO)CC2)n1 [Dasatinib] + COc1cccc2cc(-c3nc([C@H]4CC[C@H](C(=O)O)CC4)n4ncnc(N)c34)[nH]c12 [OSI-027] (partner 0.5 µM)
Procedure, shortened: (§1)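 One day after seeding in 1536-well plates, lung cancer cell lines were dosed by pin tool. Dosing was either single-drug or a fixed anchor-drug dose plus five library-drug doses (not always all listed) in √10 steps. After 5 days, nuclei were stained in one fix-and-stain step and counted on 4× images, and relative viability is the nuclei count of treated wells over that of vehicle wells, given as the median of duplicate plates.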

XMD13-2 + Foretinib = compound: C1CC1C(=O)NC2=NNC3=C2C=CC(=C3)C4=CC(=CC=C4)C(=O)NC5CC5 [XMD13-2] + COc1cc2c(Oc3ccc(NC(=O)C4(C(=O)Nc5ccc(F)cc5)CC4)cc3F)ccnc2cc1OCCCN1CCOCC1 [Foretinib] (partner 0.25 µM)
Procedure, shortened: as §1

Dasatinib + Navitoclax = compound: Cc1nc(Nc2ncc(C(=O)Nc3c(C)cccc3Cl)s2)cc(N2CCN(CCO)CC2)n1 [Dasatinib] + CC1(C)CCC(c2ccc(Cl)cc2)=C(CN2CCN(c3ccc(C(=O)NS(=O)(=O)c4ccc(N[C@H](CCN5CCOCC5)CSc5ccccc5)c(S(=O)(=O)C(F)(F)F)c4)cc3)CC2)C1 [Navitoclax] (partner 0.5 µM)
Procedure, shortened: as §1

ALW-II-49-7 + Olaparib = compound: Cc1ccc(C(=O)Nc2cccc(C(F)(F)F)c2)cc1Nc1cncc(C(N)=O)c1 [ALW-II-49-7] + O=C(c1cc(Cc2n[nH]c(=O)c3ccccc23)ccc1F)N1CCN(C(=O)C2CC2)CC1 [Olaparib] (partner 8 µM)
Procedure, shortened: as §1

Cell Line	relative viability (Dasatinib + OSI-027; first compound 0.005 µM)	relative viability (Dasatinib + OSI-027; first compound 0.01581 µM)	relative viability (Dasatinib + OSI-027; first compound 0.05 µM)	relative viability (Dasatinib + OSI-027; first compound 0.1581 µM)	relative viability (Dasatinib + OSI-027; first compound 0.5 µM)	relative viability (XMD13-2 + Foretinib; first compound 0.05 µM)	relative viability (XMD13-2 + Foretinib; first compound 0.1581 µM)	relative viability (XMD13-2 + Foretinib; first compound 0.5 µM)	relative viability (XMD13-2 + Foretinib; first compound 1.581 µM)	relative viability (XMD13-2 + Foretinib; first compound 5 µM)	relative viability (Dasatinib + Navitoclax; first compound 0.005 µM)	relative viability (Dasatinib + Navitoclax; first compound 0.01581 µM)	relative viability (Dasatinib + Navitoclax; first compound 0.05 µM)	relative viability (Dasatinib + Navitoclax; first compound 0.1581 µM)	relative viability (Dasatinib + Navitoclax; first compound 0.5 µM)	relative viability (ALW-II-49-7 + Olaparib; first compound 0.08 µM)	relative viability (ALW-II-49-7 + Olaparib; first compound 0.253 µM)	relative viability (ALW-II-49-7 + Olaparib; first compound 0.8 µM)	relative viability (ALW-II-49-7 + Olaparib; first compound 2.53 µM)	relative viability (ALW-II-49-7 + Olaparib; first compound 8 µM)
201T	0.662	0.567	0.597	0.386	0.211	1.28	1.09	1.12	1.15	1.16	1.15	1.2	1.13	1.01	0.65	0.846	0.844	0.844	0.873	0.69
A549						1.08	0.972	0.902	0.965	0.97	1.27	1.2	1.27	1.06	0.443	0.407	0.368	0.222	0.344	0.263
A-427	0.464	0.338	0.411	0.342	0.37	1.23	1.08	1.05	1.02	0.745	0.891	0.92	0.673	0.476	0.495	0.673	0.831	0.81	0.672	0.71
ABC-1	0.506	0.429	0.363	0.36	0.345	0.949	1.1	1.41	1.03	0.846						0.636	0.828	0.744	0.838	0.921
BEN	0.262	0.233	0.218	0.214	0.187	0.802	0.829	0.654	0.53	0.737	0.0479	0.0657	0.0572	0.0599	0.0611	1.12	1.11	1.18	0.548	0.98
CAL-12T	0.845	0.819	0.846	0.375	0.221	1.22	1.07	1.09	1.11	1.01	1.36	1.17	1.49	1.35	0.97	0.797	0.644	0.773	0.753	0.719
COR-L23	0.628	0.612	0.61	0.46	0.375	1.14	0.986	0.977	0.986	0.942	1.01	0.85	0.797	0.55	0.347	0.327	0.343	0.327	0.313	0.292
COR-L 105	0.555	0.467	0.418	0.262	0.222	1.16	1.19	0.729	0.883	0.899	0.588	0.49	0.52	0.368	0.278	0.646	0.626	0.781	0.663	0.578
Calu-6						0.954	0.906	0.89	0.909	0.772	0.762	0.759	0.646	0.571	0.589	0.588	0.521	0.576	0.45	0.417
ChaGo-K-1	0.556	0.501	0.52	0.459	0.423	0.883	0.885	0.944	0.882	0.932	0.618	1.08	0.965	0.909	0.923	0.384	0.427	0.394	0.411	0.39
EBC-1						0.0838	0.0911	0.109	0.124	0.0963	0.477	0.289	0.314	0.25	0.283	0.724	0.794	0.676	0.646	0.688
EKVX	0.66	0.508	0.546	0.355	0.123	0.919	0.746	0.699	0.64	0.83	0.951	0.958	0.821	0.407	0.18	0.77	0.847	0.823	0.374	0.855
EMC-BAC-2	0.315	0.264	0.259	0.192	0.152	1.11	1.01	0.791	0.957	0.61	1.13	0.939	0.936	0.548	0.28	0.482	0.475	0.445	0.396	0.367
EPLC-272H	0.33	0.338	0.252	0.29	0.091	0.71	0.629	0.644	0.568	0.187	1.32	1.06	1.39	0.959	0.473	0.609	0.468	0.506	0.711	0.64
H3255	0.639	0.484	0.653	0.44	0.274	0.886	0.891	0.893	0.696	0.984	0.542	0.527	0.388	0.187	0.115	0.516	0.549	0.492	0.537	0.477
HARA	0.339	0.4	0.375	0.156	0.0755	1.1	0.854	0.834	1.01	0.616	1.15	0.974	1	0.596	0.326	0.556	0.584	0.551	0.626	1.07
HCC-15	0.641	0.652	0.526	0.412	0.454	1.14	1	1.14	0.981	0.62	0.692	0.528	0.555	0.332	0.239	0.757	0.689	0.719	0.577	0.648
